Measured values taken from the supplement of paper PMC10307832.

Assays:
Assay in all cases: relative viability (nuclei count vs DMSO), 5 days (fraction); higher = more cells survive
[1] = compound: COC1=CC(c2cc3ccccc3[nH]2)=N/C1=C\c1[nH]c(C)cc1C [Obatoclax] + CC1(C)CCC(c2ccc(Cl)cc2)=C(CN2CCN(c3ccc(C(=O)NS(=O)(=O)c4ccc(N[C@H](CCN5CCOCC5)CSc5ccccc5)c(S(=O)(=O)C(F)(F)F)c4)cc3)CC2)C1 [Navitoclax] (partner 0.5 µM)
Procedure, shortened: (§1)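 Cells from lung cancer lines were seeded into 1536-well plates and, one day later, dosed by pin tool. Treatments were either a single drug or a fixed dose of an anchor drug with five library-drug doses (not always all listed) in √10 steps. After 5 days, nuclei were stained in a one-step fixation (final 0.05% Triton X-100, 1% formaldehyde, 1 ug/ml Hoechst) and counted on 4× images, and relative viability is the treated-to-vehicle nuclei ratio, as the median of duplicate plates.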

[2] = compound: CC1=CC(=NN1)NC2=CC(=NC(=N2)/C=C/C3=CC=CC=C3)N4CCN(CC4)C + CC1(C)CCC(c2ccc(Cl)cc2)=C(CN2CCN(c3ccc(C(=O)NS(=O)(=O)c4ccc(N[C@H](CCN5CCOCC5)CSc5ccccc5)c(S(=O)(=O)C(F)(F)F)c4)cc3)CC2)C1 [Navitoclax] (partner 0.5 µM)
Procedure, shortened: as §1

[3] = compound: CC(C)C[C@H](NC(=O)[C@H](Cc1ccccc1)NC(=O)c1cnccn1)B(O)O [Bortezomib] + CC(=O)Nc1cccc(-n2c(=O)n(C3CC3)c(=O)c3c(Nc4ccc(I)cc4F)n(C)c(=O)c(C)c32)c1 [Trametinib] (partner 0.02 µM)
Procedure, shortened: as §1

[4] = compound: CC1=CC(=NN1)NC2=CC(=NC(=N2)/C=C/C3=CC=CC=C3)N4CCN(CC4)C + Cc1nc(NC(=O)N2CCC[C@H]2C(N)=O)sc1-c1ccnc(C(C)(C)C(F)(F)F)c1 [Alpelisib] (partner 2 µM)
Procedure, shortened: as §1

Cell Line	relative viability ([1]; first compound 0.01 µM)	relative viability ([1]; first compound 0.03162 µM)	relative viability ([1]; first compound 0.1 µM)	relative viability ([1]; first compound 0.3162 µM)	relative viability ([1]; first compound 1 µM)	relative viability ([2]; first compound 0.08 µM)	relative viability ([2]; first compound 0.253 µM)	relative viability ([2]; first compound 0.8 µM)	relative viability ([2]; first compound 2.53 µM)	relative viability ([2]; first compound 8 µM)	relative viability ([3]; first compound 0.0002 µM)	relative viability ([3]; first compound 0.000632 µM)	relative viability ([3]; first compound 0.002 µM)	relative viability ([3]; first compound 0.006325 µM)	relative viability ([3]; first compound 0.02 µM)	relative viability ([4]; first compound 0.08 µM)	relative viability ([4]; first compound 0.253 µM)	relative viability ([4]; first compound 0.8 µM)	relative viability ([4]; first compound 2.53 µM)	relative viability ([4]; first compound 8 µM)
NCI-H2009	1.13	1.23	1.15	1.17	0.258	1.19	1.09	1.13	1.12	0.212	0.322	0.223	0.256	0.0731	0.0528	1.09	1.19	1.16	1.13	0.241
NCI-H1651	1.04	0.991	0.968	0.507	0.224	0.974	1.11	0.837	0.424	0.129	0.802	0.843	0.726	0.155	0.117	0.816	0.919	1.15	0.558	0.146
HOP-62	1.06	1.01	1.01	0.989	0.932	0.903	1.27	1.03	1	0.124	0.37	0.401	0.378	0.173	0.0647	0.937	1.09	0.931	0.942	0.164
CAL-12T	1.06	1.03	1.24	0.926	0.103	0.918	1.31	1.16	0.424	0.151	0.378	0.335	0.327	0.156	0.133	1.04	1.21	1.24	0.339	0.121
NCI-H3122	1.02	1.01	1.04	1.04	1.02	1	0.996	0.991	0.918	0.896	0.215	0.276	0.222	0.232	0.124	0.769	0.799	0.902	0.621	0.257
NCI-H1395	1.2	1.13	0.949	0.865	0.69	1.32	1.27	1.59	0.676	0.308	1.14	0.939	0.708	0.315	0.31	1	1.07	1.03	0.602	0.289
PC-14	0.968	1.07	0.962	0.847	0.128	0.974	1.01	0.928	0.324	0.0445	0.788	0.799	0.356	0.0475	0.0434	0.915	0.85	0.322	0.749	0.124
BEN	0.0996	0.0601	0.052	0.0537	0.078	0.0566	0.0746	0.188	0.0803	0.0617	0.856	0.953	0.87	0.829	0.29	1.06	1.1	0.986	0.865	0.186
